Assay results as given in US20130281463A1, “DIAZA-SPIRO[5.5]UNDECANES USEFUL AS OREXIN RECEPTOR ANTAGONISTS” (NOVARTIS AG, priority 2010, published 2013).
Read-outs that look alike come from different tables or passages of the source.

What was measured:
human orexin 2 receptors [1] = target: T1, human orexin 2 receptors (Homo sapiens, UniProt O43614); test: Calcium accumulation in cells (FLIPR), hOx2R; type: cell-based; conditions: inhibition of orexin A induced calcium accumulation; Cheng and Prusoff correction
T1 construct: expressed in transfected cells
T1 sequence (O43614 1-444): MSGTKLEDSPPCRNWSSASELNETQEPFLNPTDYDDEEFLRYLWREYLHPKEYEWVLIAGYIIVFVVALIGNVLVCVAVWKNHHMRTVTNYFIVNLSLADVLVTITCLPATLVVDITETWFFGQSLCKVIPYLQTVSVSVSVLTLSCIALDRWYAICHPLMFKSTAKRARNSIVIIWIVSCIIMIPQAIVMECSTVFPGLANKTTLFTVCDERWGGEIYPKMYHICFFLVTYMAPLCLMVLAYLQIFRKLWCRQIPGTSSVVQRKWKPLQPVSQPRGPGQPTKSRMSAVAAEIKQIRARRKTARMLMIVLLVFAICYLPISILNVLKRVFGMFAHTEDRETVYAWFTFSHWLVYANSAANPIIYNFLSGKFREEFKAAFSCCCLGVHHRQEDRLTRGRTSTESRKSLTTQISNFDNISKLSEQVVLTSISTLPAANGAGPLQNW
Protocol: (§1) Cells expressing human orexin 1 or human orexin 2 receptors, were seeded at 8,000 cells/well in 384 well black-walled clear bottom, poly-D-lysine coated plates. After 24 h, the medium was removed and cells were washed once with phosphate buffered saline and serum-deprived overnight in assay buffer (130 mM NaCl, 5.4 mM KCl, 1.8 mM CaCl2, 0.8 mM MgSO4, 0.9 mM NaH2PO4, 25 mM glucose, 20 mM HEPES, pH 7.4) containing bovine serum albumin (1% w/v).
On the day of the experiment, the cells seeded in black plates were treated with assay buffer containing the Ca^2+ sensitive fluorescent dye Fluo4-AM (2 μM), and probenecid (0.1 mM). After 1 h plates were washed twice with, and resuspended in, assay buffer containing probenecid (0.1 mM) using a multi plate washer. […] Fluorescence measurements were then continued every 1 S for 120 S followed by every 4 S for 240 S.
(§2) Compounds of formula I were tested usually in a concentration range from 10^−9 M to 10^−5M.
(§3) In the second round, performed one hour later (to allow for equilibration), Orexin A was tested either in the absence (calibration curves, Orexin A agonist controls) or in the presence of compounds of formula I to determine antagonism.

human orexin 1 receptors [2] = target: T2, human orexin 1 receptors (Homo sapiens, UniProt O43613); test: Calcium accumulation in cells (FLIPR), hOx1R
T2 sequence (O43613 1-425): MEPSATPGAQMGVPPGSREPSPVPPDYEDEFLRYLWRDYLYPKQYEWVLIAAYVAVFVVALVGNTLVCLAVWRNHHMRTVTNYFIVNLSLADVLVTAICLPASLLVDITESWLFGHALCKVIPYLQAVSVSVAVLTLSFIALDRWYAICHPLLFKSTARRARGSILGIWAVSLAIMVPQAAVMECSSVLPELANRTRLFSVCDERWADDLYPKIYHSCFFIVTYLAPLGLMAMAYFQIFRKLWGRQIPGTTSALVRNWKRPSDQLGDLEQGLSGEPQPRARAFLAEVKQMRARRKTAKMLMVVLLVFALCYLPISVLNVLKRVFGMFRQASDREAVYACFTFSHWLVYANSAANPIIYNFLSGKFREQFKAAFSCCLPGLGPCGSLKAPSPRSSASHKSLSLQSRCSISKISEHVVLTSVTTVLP
Protocol: as §1
On the day of the experiment, the cells seeded in black plates were treated with assay buffer containing the Ca^2+ sensitive fluorescent dye Fluo4-AM (2 μM), and probenecid (0.1 mM). After 1 h plates were washed twice with, and resuspended in, assay buffer containing probenecid (0.1 mM) using a multi plate washer. The plates were placed into a FLIPR II (Fluorometric Imaging Plate Reader, Molecular Devices, Sunnyvale, Calif., USA) and baseline fluorescence (fluorescence light units, FLU) was measured (5 measurements, 2 S each; laser excitation 488 nm at 0.6-1 W, CCD camera exposure 0.4 s) before addition of buffer alone (basal) or containing test compounds (either compound of formula I alone, agonist alone or agonist in the presence of various concentrations of compounds of formula I). Fluorescence measurements were then continued every 1 S for 120 S followed by every 4 S for 240 S.
as §2, §3
Inhibition data is expressed in Table 2 as Ki [μM], converted by the Cheng and Prusoff correction (Ki=IC50/1+(L/EC50)), where IC50 is the 50% inhibition value determined in concentration response inhibition curves, EC50 is the half maximal activation concentration determined for orexin A in concentration response curves and L is the concentration of orexin A used in inhibition experiments performed in with a submaximal concentration of orexin A in the presence of up to 8 increasing concentrations of compound of formula I. Inhibition data is also expressed in Table 2 as % inhibition value measured at a concentration of 10 μM of selected compounds of formula I.

human orexin 1 receptors [3] = target: T2, human orexin 1 receptors; test: Radioligand binding assay ([3H]-SB649868 competition), hOx1R; parameters: expressed in transfected cells; conditions: competition with about 1 nM [3H]-SB649868, cell membranes
Protocol: The cell pellet was either stored at −80° C. or used directly. Before the experiments, cell membranes were re-suspended in binding assay buffer (10 mM HEPES, 0.5% (w/v) bovine serum albumin, pH 7.5) by homogenisation with a Polytron homogeniser at 50 Hz for 20 s. Cell membranes were also used as made available by commercial providers.
Bound radioactivity was measured, and data were analysed with the program XLFIT or Graphpad Prism. Protein concentration was determined according to the Bradford/BioRad Protein Assay Kit.
In competition experiments, cell homogenates (150 μl) were incubated in assay buffer (10 mM HEPES, pH 7.5, 0.5% (w/v) bovine serum albumin, 5 mM MgCl2, 1 mM CaCl2, and tween 0.05%) for 1 h at room temperature with about 1 nM of the radioligand [^3H]-SB649868, 66 Ci/mmole, 50 μl), and with various concentrations of compounds of the invention (50 μl) in triplicates; non-specific binding was determined in the presence of almorexant (10 μM). Reactions were terminated by vacuum filtration, 3 washes of ice cold wash buffer (Tris-HCl pH 7.4/10 mM, with NaCl 154 mM). Competition data is expressed in Table 2 as Kd [μM].

human orexin 2 receptors [4] = target: T1, human orexin 2 receptors; test: Radioligand binding assay ([3H]-SB649868 competition), hOx2R; conditions: competition with about 1 nM [3H]-SB649868, cell membranes
Protocol: For crude cell membrane preparations, cells (CHO, Chinese hamster ovary or HEK, human embryonic kidney) expressing human orexin 1 or human orexin 2 receptors, were washed with HEPES (10 mM, pH 7.5), scraped off the culture plates with the same buffer, and centrifuged at 4° C. for 5 min at 2500×g. The cell pellet was either stored at −80° C. or used directly. Before the experiments, cell membranes were re-suspended in binding assay buffer (10 mM HEPES, 0.5% (w/v) bovine serum albumin, pH 7.5) by homogenisation with a Polytron homogeniser at 50 Hz for 20 s.

[5] = read-out: FLIPR hOx1R Ki, inhibition of orexin A induced calcium accumulation, Cheng and Prusoff correction

SMILES | Ki (human orexin 2 receptors [1]) | Ki (human orexin 1 receptors [2]; [5]) | inhibition at 10 µM (human orexin 1 receptors [2]; read-out: FLIPR hOx1R % inhibition value) | Kd (human orexin 1 receptors [3]) | Ki (human orexin 1 receptors [2]) | Kd (human orexin 2 receptors [4])
Cc1cc(C)nc(N2CCC3(CCCN(Cc4ccccc4-c4nc(C)no4)C3=O)CC2)n1 [Example 1, 9-(4,6-dimethylpyrimidin-2-yl)-2-(2-(3-methyl-1,2,4-oxadiazol-5-yl)benzyl)-2,9-diazaspiro[5.5]undecan-1-one] | 0.007 µM | 1.62 µM | – | – | – | –
COc1ccnc(N2CCC3(CCCN(Cc4c[nH]c5ccccc45)C3=O)CC2)n1 [Example 13, 2-((1H-indol-3-yl)methyl)-9-(4-methoxypyrimidin-2-yl)-2,9-diazaspiro[5.5]undecan-1-one] | 0.014 µM | – | – | – | – | –
O=C1N(Cc2cccc3c2OCCO3)CCCC12CCN(c1cncc(Cl)n1)CC2 [Example 21, 9-(6-chloropyrazin-2-yl)-2-((2,3-dihydrobenzo[b][1,4]dioxin-5-yl)methyl)-2,9-diazaspiro[5.5]undecan-1-one] | 0.247 µM | – | 26% | – | – | –
Cc1cc(C#N)nc(N2CCC3(CCCN(Cc4ccccc4-n4nccn4)C3=O)CC2)n1 [Example 25, 2-(2-(2-(2H-1,2,3-triazol-2-yl)benzyl)-1-oxo-2,9-diazaspiro[5.5]undecan-9-yl)-6-methylpyrimidine-4-carbonitrile] | 0.068 µM | – | – | > 10 µM | 3.7 µM | 0.389 µM
COc1cncc(N2CCC3(CCCN(Cc4c[nH]c5ccccc45)C3=O)CC2)n1 [Example 82, 2-((1H-indol-3-yl)methyl)-9-(6-methoxypyrazin-2-yl)-2,9-diazaspiro[5.5]undecan-1-one] | 0.057 µM | – | – | > 10 µM | 0.856 µM | 3.16 µM
COC(=O)c1ccc2[nH]cc(CN3CCCC4(CCN(c5nc(C)cc(C)n5)CC4)C3=O)c2c1 [Example 115, Methyl 3-((9-(4,6-dimethylpyrimidin-2-yl)-1-oxo-2,9-diazaspiro[5.5]undecan-2-yl)methyl)-1H-indole-5-carboxylate] | 0.0007 µM | 0.021 µM | – | – | – | –
COc1cc(-c2nn(C)nc2CN2CCCC3(CCN(c4nc(C)cc(C)n4)CC3)C2=O)ccn1 [Example 122, 9-(4,6-dimethylpyrimidin-2-yl)-2-((5-(2-methoxypyridin-4-yl)-2-methyl-2H-1,2,3-triazol-4-yl)methyl)-2,9-diazaspiro[5.5]undecan-1-one] | 0.0014 µM | – | – | 0.13 µM | 0.176 µM | 0.014 µM
